This note sets out measurements from BindingDB's records for doi:10.1021/jm800328v (Yale University, 2008).

The experiment concerns the target T1, ATP phosphoribosyltransferase (Mycobacterium tuberculosis (strain ATCC 25618 / H37Rv), UniProt P9WMN1).
T1 sequence (P9WMN1 whole entry): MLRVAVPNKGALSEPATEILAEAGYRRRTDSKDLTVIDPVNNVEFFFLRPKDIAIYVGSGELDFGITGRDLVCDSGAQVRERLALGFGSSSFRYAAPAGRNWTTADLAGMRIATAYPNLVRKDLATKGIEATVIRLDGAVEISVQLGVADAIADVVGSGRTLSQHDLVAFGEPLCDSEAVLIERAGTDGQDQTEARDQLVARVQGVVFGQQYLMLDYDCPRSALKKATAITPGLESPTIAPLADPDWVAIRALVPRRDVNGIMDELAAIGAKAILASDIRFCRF
Nature of the experiment: Enzyme Inhibition Assay. The note with it: pH 8.5; 22 °C. Here is the method:
Inhibition activity was determined using an assay that followed the production of PR-ATP spectrophotometrically. Enzymatic reaction was initiated by adding the substrate PRPP to reaction mixtures containing HisG enzyme and test compounds, and absorbance of product was monitored at 290 nm for 5 min until it formed a plateau.

A word on the IC50: it is the midpoint of a concentration-inhibition curve. A higher IC50 goes with a need for much substance. `O=C(CSc1nnc(-c2ccccc2)c(-c2ccccc2)n1)Nc1nccs1` [2-[(5,6-diphenyl-1,2,4-triazin-3-yl)sulfanyl]-N-(1,3-thiazol-2-yl)acetamide]: the IC50 came to 4 µM. With `COc1ccc(COC(=O)C2=C(C)N=C3CC(c4cccs4)CC(=O)C3C2c2cccs2)cc1` (configuration not stated) [(4-methoxyphenyl)methyl 2-methyl-5-oxo-4,7-bis(thiophen-2-yl)-1,4,5,6,7,8-hexahydroquinoline-3-carboxylate], the IC50 was found to be 10 µM.
